Reference: patent US6869957B1, “Non-peptide tachykinin receptor antagonists” (Eli Lilly and Company, priority 1993, dated 2005)
pIC50: −log10 of the molar value.

What follows are compounds tested against T1, NK-1 receptor (Homo sapiens, UniProt P25103) (assay: NK-1 Receptor Binding Assay (125I-labeled substance P, IM9 cells)). Settings: @ 1 μM.
T1 construct: endogenous in cells; host or cells: IM9 cells (human cell line), whole cells
T1 sequence (P25103 whole entry): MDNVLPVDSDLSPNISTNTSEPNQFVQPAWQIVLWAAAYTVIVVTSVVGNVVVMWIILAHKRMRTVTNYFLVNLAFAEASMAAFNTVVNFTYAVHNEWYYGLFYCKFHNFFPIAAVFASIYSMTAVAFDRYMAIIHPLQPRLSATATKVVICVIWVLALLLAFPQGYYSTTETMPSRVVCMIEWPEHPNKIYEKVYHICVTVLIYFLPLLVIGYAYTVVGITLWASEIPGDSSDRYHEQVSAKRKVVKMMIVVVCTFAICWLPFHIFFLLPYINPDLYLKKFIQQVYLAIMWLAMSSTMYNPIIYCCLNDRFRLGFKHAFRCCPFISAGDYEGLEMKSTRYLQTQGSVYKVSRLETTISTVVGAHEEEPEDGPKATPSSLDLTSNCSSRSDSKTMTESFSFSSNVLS
Description: The biological activity of the compounds of the present invention was evaluated employing an initial screening assay which rapidly and accurately measured the binding of the tested compound to known NK-1 and NK-2 receptor sites. Assays useful for evaluating tachykinin receptor antagonists are well known in the art.
NK-1 Receptor Binding Assay
Radioreceptor binding assays were performed using a derivative of a previously published protocol.
The IM9 cell line is a well-characterized and readily available human cell line.
The reaction was terminated by filtration through a glass fiber filter harvesting system using filters previously soaked for 20 minutes in 0.1% polyethylenimine. Specific binding of labeled substance P was determined in the presence of 20 nM unlabeled ligand.
`COc1ccccc1CNCC(Cc1c[nH]c2ccccc12)NC(=O)CN1CCN(c2ccccc2)CC1` (stereo not shown) [Example 6] was tested, and the “NK-1 percent inhibition of binding” value was 62% @. In the case of `COc1ccccc1CN(C[C@H](Cc1c[nH]c2ccccc12)NC(=O)OCc1ccccc1)C(C)=O` [Example 93], the “NK-1 percent inhibition of binding” value was 16% @.

Same assay, conditions: inhibits fifty percent of binding of 125I-substance P to IM9 cells
`O=C(CN1CCN(c2ccccc2)CC1)NC(CNCc1ccccc1Cl)Cc1c[nH]c2ccccc12` (stereo not shown) [Example 2, 1-[N-(2-chlorobenzyl)amino]-3-(1H-indol-3-yl)-2-[N-(2-((4-phenyl)piperazin-1-yl)acetyl)amino]propane] was tested, and the pIC50 was 7.44. With `O=C(CN1CCN(c2ccccc2)CC1)NC(CNCc1ccccc1C(F)(F)F)Cc1c[nH]c2ccccc12` (stereo not shown) [Example 3] the pIC50 was 7.54. For `COc1ccccc1CNC[C@@H](Cc1c[nH]c2ccccc12)NC(=O)CN1CCN(c2ccccc2)CC1` [Example 5], the pIC50 was 7.21. `COc1cccc(CNCC(Cc2c[nH]c3ccccc23)NC(=O)CN2CCN(c3ccccc3)CC2)c1` (stereo not shown) [Example 7] showed a pIC50 of 6.64. Work on `COc1ccc(CNCC(Cc2c[nH]c3ccccc23)NC(=O)CN2CCN(c3ccccc3)CC2)cc1` (stereo not shown) [Example 8] yielded a pIC50 of 6.89. `CC(=O)N(Cc1ccccc1Cl)CC(Cc1c[nH]c2ccccc12)NC(=O)CN1CCN(c2ccccc2)CC1` (stereo not shown) [Example 13] was tested, and the pIC50 was 8.89. For `CC(=O)N(Cc1ccccc1C(F)(F)F)CC(Cc1c[nH]c2ccccc12)NC(=O)CN1CCN(c2ccccc2)CC1` (stereo not shown) [Example 15], the pIC50 was 8.68. With `CCCCN(CC(Cc1c[nH]c2ccccc12)NC(=O)CN1CCN(c2ccccc2)CC1)C(C)=O` (stereo not shown) [Example 39] the pIC50 was 6.86. `CC(=O)N(Cc1ccccc1Cl)CC(Cc1c[nH]c2ccccc12)NC(=O)CN1CCC(N2CCCCC2)CC1` (stereo not shown) [Example 48] gave a pIC50 of 9.62. With `CC(=O)N(Cc1ccccc1Cl)CC(Cc1c[nH]c2ccccc12)NC(=O)CN1CCC(N2CCCCC2)CC1` (stereo not shown) [Example 49] the pIC50 was 6.87. With `COc1ccccc1CN(CC(Cc1c[nH]c2ccccc12)NC(=O)CBr)C(C)=O` (stereo not shown) [Example 55] the pIC50 was 7.15. Work on `COc1ccccc1CN(CC(Cc1c[nH]c2ccccc12)NC(=O)CSc1ccccc1)C(C)=O` (stereo not shown) [Example 57] yielded a pIC50 of 6.82. `COc1ccccc1CN(CC(Cc1c[nH]c2ccccc12)NC(=O)CN1CCN(C(C)C)CC1)C(C)=O` (stereo not shown) [Example 73] was tested, and the pIC50 was 9.00. In the case of `CC(=O)N(Cc1ccccc1Cl)CC(Cc1c[nH]c2ccccc12)NC(=O)CN1CCN(C(C)C)CC1` (stereo not shown) [Example 86], the pIC50 was 9.44. `CC(=O)N(Cc1ccccc1Cl)CC(Cc1c[nH]c2ccccc12)NC(=O)CN1CCN(C2CCCCC2)CC1` (stereo not shown) [Example 87] was tested, and the pIC50 was 9.11. With `COc1ccccc1CN(CC(Cc1c[nH]c2ccccc12)NC(=O)CCc1ccccc1)C(C)=O` (stereo not shown) [Example 90] the pIC50 was 7.19. With `COc1ccccc1CN(CC(Cc1c[nH]c2ccccc12)NC(=O)CCc1ccccc1)C(C)=O` (stereo not shown) [Example 91] the pIC50 was 5.52. `COc1ccccc1CN(CC(Cc1c[nH]c2ccccc12)NC(=O)OCc1ccccc1)C(C)=O` (stereo not shown) [Example 92] showed a pIC50 of 7.01. `COc1ccccc1CN(C[C@@H](Cc1c[nH]c2ccccc12)NC(=O)CCC(=O)c1ccccc1)C(C)=O` [Example 96] was tested, and the pIC50 was 7.46. In the case of `COc1ccccc1CN(C[C@H](Cc1c[nH]c2ccccc12)NC(=O)CCC(=O)c1ccccc1)C(C)=O` [Example 97], the pIC50 was 5.89. In the case of `COc1ccccc1CNCC(Cc1c[nH]c2ccc(OCc3ccccc3)cc12)NC(=O)CN1CCN(c2ccccc2)CC1` (stereo not shown) [Example 112], the pIC50 was 6.57. In the case of `COc1ccccc1CN(CC(Cc1c[nH]c2c(C)cccc12)NC(=O)CN1CCN(c2ccccc2)CC1)C(C)=O` (stereo not shown) [Example 115], the pIC50 was 7.81. In the case of `COc1ccc2[nH]cc(CC(CN(Cc3ccccc3OC)C(C)=O)NC(=O)CN3CCN(c4ccccc4)CC3)c2c1` (stereo not shown) [Example 117], the pIC50 was 7.48. Work on `COc1ccccc1CN(CC(Cc1c[nH]c2ccc(OCc3ccccc3)cc12)NC(=O)CN1CCN(c2ccccc2)CC1)C(C)=O` (stereo not shown) [Example 118] yielded a pIC50 of 6.51. For `COc1ccccc1CNCC(Cc1c[nH]c2ccc(Br)cc12)NC(=O)CN1CCC(N2CCCCC2)CC1` (stereo not shown) [Example 120], the pIC50 was 5.60. Compound `COc1ccc2[nH]cc(CC(CNCc3ccccc3OC)NC(=O)CN3CCC(N4CCCCC4)CC3)c2c1` (stereo not shown) [Example 121] has a pIC50 of 6.07.
